How the values were obtained:
Format in all cases: ADME, cell-based
[1] = Apparent permeability from apical to basolateral side of human Caco-2 cells at 30 uM after 90 mins
[2] = Apparent permeability from apical to basolateral side of human Caco-2 cells at 50 uM after 90 mins
[3] = Apparent permeability from apical to basolateral side of human Caco-2 cells at 100 uM after 90 mins
[4] = Apparent permeability from basolateral to apical side of human Caco-2 cells at 30 uM after 90 mins
[5] = Apparent permeability from basolateral to apical side of human Caco-2 cells at 50 uM after 90 mins
[6] = Apparent permeability from basolateral to apical side of human Caco-2 cells at 100 uM after 90 mins
[7] = test system: Caco-2; experiment: Ratio of permeability from basolateral to apical side over apical to basolateral side of human Caco-2 cells at 30 uM; settings: caco-2, 30 µM
[8] = test system: Caco-2; experiment: Ratio of permeability from basolateral to apical side over apical to basolateral side of human Caco-2 cells at 50 uM; settings: caco-2, 50 µM
[9] = test system: Caco-2; experiment: Ratio of permeability from basolateral to apical side over apical to basolateral side of human Caco-2 cells at 100 uM; settings: caco-2, 100 µM
[10] = Apparent permeability from apical to basolateral side of human Caco-2 cells at 50 uM in presence of iodoacetamide; settings: Caco-2, with iodoacetamide (concentration not stated)
[11] = Apparent permeability from basolateral to apical side of human Caco-2 cells at 50 uM in presence of iodoacetamide; settings: Caco-2, with iodoacetamide (concentration not stated)
[12] = test system: Caco-2; experiment: Drug level in Caco-2 cells assessed as intracellular accumulation at 50 uM after 180 mins; settings: human, caco-2, 3 h
[13] = test system: Caco-2; experiment: Drug level in Caco-2 cells assessed as intracellular accumulation at 50 uM after 60 mins; settings: human, caco-2, 1 h
[14] = test system: Caco-2; experiment: Drug level in Caco-2 cells assessed as intracellular accumulation at 50 uM after 90 mins; settings: human, caco-2, 1.5 h
[15] = test system: Caco-2; experiment: Drug level in Caco-2 cells assessed as intracellular accumulation at 50 uM after 120 mins; settings: human, caco-2, 2 h
[16] = test system: Caco-2; experiment: Drug level in Caco-2 cells assessed as intracellular accumulation at 50 uM after 150 mins; settings: human, caco-2, 2.5 h
[17] = Drug level in Caco-2 cells assessed as total recovery rate at 50 uM after 30 mins; settings: human, read-out: Drug uptake
[18] = Drug level in Caco-2 cells assessed as total recovery rate at 50 uM after 60 mins; settings: human, read-out: Drug uptake
[19] = Drug level in Caco-2 cells assessed as total recovery rate at 50 uM after 90 mins; settings: human, read-out: Drug uptake
[20] = Drug level in Caco-2 cells assessed as total recovery rate at 50 uM after 120 mins; settings: human, read-out: Drug uptake
[21] = Drug level in Caco-2 cells assessed as total recovery rate at 50 uM after 150 mins; settings: human, read-out: Drug uptake
[22] = Drug level in Caco-2 cells assessed as total recovery rate at 50 uM after 180 mins; settings: human, read-out: Drug uptake
[23] = test system: Caco-2; experiment: Drug level in Caco-2 cells assessed as intracellular accumulation at 50 uM after 30 mins; settings: human, caco-2, 0.5 h

Row | Compound | Papp A→B at 1.5 h, 30 µM [1] [×10⁻⁶ cm/s] | Papp A→B at 1.5 h, 50 µM [2] [×10⁻⁶ cm/s] | Papp A→B at 1.5 h, 100 µM [3] [×10⁻⁶ cm/s] | Papp B→A at 1.5 h, 30 µM [4] [×10⁻⁶ cm/s] | Papp B→A at 1.5 h, 50 µM [5] [×10⁻⁶ cm/s] | Papp B→A at 1.5 h, 100 µM [6] [×10⁻⁶ cm/s] | Ratio [7] | Ratio [8] | Ratio [9] | Drug uptake [12] [%] | Drug uptake [13] [%] | Drug uptake [14] [%] | Drug uptake [15] [%] | Drug uptake [16] [%] | recovery at 0.5 h, 50 µM [17] [%] | recovery at 1 h, 50 µM [18] [%] | recovery at 1.5 h, 50 µM [19] [%] | recovery at 2 h, 50 µM [20] [%] | recovery at 2.5 h, 50 µM [21] [%] | recovery at 3 h, 50 µM [22] [%] | further results
1 | Cc1cc(=O)c2c(O)cc(O[C@@H]3O[C@H](COC(=O)C4=CC[C@H](C(C)(C)O)CC4)[C@@H](O)[C@H](O)[C@H]3O)cc2o1 [CYPELLOCARPA C] | 7.4 | 5.99 | 4.82 | 2.66 | 3.32 | 2.71 | 2.74 | 1.8 | 1.81 | 0.89 | 0.83 | 0.81 | 0.69 | 0.81 | 56.8 | 53.1 | 52.8 | 52.7 | 54.6 | 52.5 | Papp A→B at 50 µM [10]: 0.897 ×10⁻⁶ cm/s; Papp B→A at 50 µM [11]: 2.46 ×10⁻⁶ cm/s; Drug uptake [23]: 1.42%
2 | CC(C)C[C@H](c1c(O)c(C=O)c(O)c(C=O)c1O)[C@@]1(C)CC[C@@H]2[C@@H]1[C@H]1[C@@H](CC[C@@]2(C)O)C1(C)C [MACROCARPAL B] | 2.29 | 1.71 | 1.64 | 1.84 | 2 | 2.14 | 1.25 | 0.85 | 0.77 | 49.26 | 50.56 | 46.98 | 63.25 | 53.21 | 50 | 56.6 | 64.7 | 68.7 | 59.5 | 55.5 | Drug uptake [23]: 41.19%
3 | CC(C)C[C@@H](c1c(O)c(C=O)c(O)c(C=O)c1O)[C@@]1(C)CC[C@@H]2[C@@H]1[C@H]1[C@@H](CC[C@@]2(C)O)C1(C)C [MACROCARPAL A] | 1.66 | 1.64 | 1.8 | 1.63 | 1.68 | 1.42 | 1.02 | 0.98 | 1.27 | 56.67 | 40.79 | 44.21 | 50.42 | 50.57 | 76.4 | 63.1 | 60.8 | 69.8 | 68.5 | 75.7 | Drug uptake [23]: 36.8%

Source: ChEMBL document CHEMBL1138427, “Intestinal permeability of antivirus constituents from the fruits of Eucalyptus globulus Labill. in Caco-2 Cell Model” (Bioorg Med Chem Lett, 2007)
